From patent US9730871B2, “Antiperspirant/deodorant cosmetic compositions” (Colgate-Palmolive Company, priority 2012, dated 2017)

Tested on: staphylococcus hemolyticus
Experiment: Growth of underarm bacteria on agar plates coated with stick formulation, colony count
Format: cell-based
Conditions: for Bacteria count: 37° C., 16 hours, 0% control count 172; for Effect on growth / colony formation of staphylococcus hemolyticus (in words): sticks with 5-15% lauric acid coated on agar
Method: Four simplified stick compositions, each comprising 20% stearyl alcohol gellant and 0%, 5%, 10% and 15% lauric acid, respectively, were prepared. Stearyl alcohol is not considered to be an antibacterial agent. The remainder of each stick consisted of C12-C15 alkyl benzoates, which are synthetic emollients with no antibacterial activity.
A thin layer of each formulation was coated onto an agar plate, by moving the stick across the surface of the plate. A solution of staphylococcus hemolyticus bacteria at 0.1 optical density as measured by UV spectroscopy was diluted by a factor of 40. […] of the bacterial solution was then applied to the agar plate. The plate was incubated at 37° C. for 16 hours. The number of colonies formed on each plate was then recorded.

CCCCCCCCCCCC(=O)O [Laurie acid, lauric acid] showed a Bacteria count (5% lauric acid in stick with 20% stearyl alcohol and C12-C15 alkyl benzoates) of 120, a Bacteria count (10% lauric acid in stick with 20% stearyl alcohol and C12-C15 alkyl benzoates) of 102 and a Bacteria count (15% lauric acid in stick with 20% stearyl alcohol and C12-C15 alkyl benzoates) of 49. The “Effect on growth / colony formation of staphylococcus hemolyticus (in words)” value was “inhibit the growth” and the “Effect on growth / colony formation of staphylococcus hemolyticus (in words)” value (listed as lauric acid) was “reduction on the number of bacterial colonies formed”.
